Results as given in US11246961B2, “Engineered scaffolds for vascularized tissue repair” (The Regents of the University of California, priority 2016, dated 2022).

What was measured:
VEGFR2 (Tyr1175) = assay: Western-blot analysis, phosphorylation of VEGFR2; assay type: cell-based, human; settings: LXW7 treated surface, 96 hours, vs D-biotin
Method: (§1) The 100-mm dishes from Example 2 were treated with Avidin followed by LXW7-bio or D-biotin as described in Example 5. 8×10^5 HCAECs were seeded per dish and cultured in EGM-2 media for 4 days. Cells were lysed using Extraction Kit (Thermo Fisher Scientific) and protein concentrations were determined using BCA Protein Assay (Thermo Fisher Scientific). Fifteen μg of each sample were loaded and separated using a 4-12% Bis-Tris NuPAGE gel (Thermo Fisher Scientific) and transferred to a nitrocellulose membrane. The membrane was blocked in 5% BSA in TBST (Tris-buffered saline with 0.5% Tween-20), and subsequently incubated with primary antibodies anti-VEGF Receptor 2, anti-Phospho-VEGF Receptor 2, anti-p44/42 MAPK (Erk1/2) and anti-Phospho-p44/42 MAPK (Erk1/2) (Thr202/Tyr204), all purchased from Cell Signaling Technologies, in 1% BSA overnight at 4° C. After washing three times with TBST, the membranes were incubated with respective horseradish peroxidase-conjugated secondary antibodies in 1% non-fat dry milk in TBST (BioRad) for 1 hour at room temperature. After washing, the protein bands were visualized using West Dura Substrate (Thermo Fisher Scientific) and quantified using Image J software.

HECFCs = assay: flow cytometry ligand-cell binding, HECFCs; set-up: species or system human; settings: biotinylated ligand 1 μM, streptavidin-phycoerythrin
Method: (§2) FIG. 10 presents flow cytometry data from an assay of binding affinity of LXW7 and GRGD (SEQ ID NO: 1) to different cell types. Tests included EPCs/ECs from different sources, including HECFCs (A), HCAECs (B), HMVECs (C), and THP-1 monocytes (D), Platelets (E), as well as K562 cells engineered to highly express αvβ3 (αvβ3-K562, F), and αIIbβ3 (αIIbβ3-K562, G). Cells were incubated with the LXW7-bio, GRGD-bio (SEQ ID NO: 1), or D-Biotin peptide and subsequently incubated with streptavidin-phycoerythrin. Flow cytometry analysis was performed to determine the binding affinity of the ligands. Samples treated with D-biotin were used as negative controls.
(§3) LXW7-bio (1 μM) was incubated with 3×10^5 HECFCs, HCAECs, HMVECs, αvβ3-K562 and αIIbβ3-K562 cells and THP-1 monocytes and 1×10^8 platelets in binding buffer (HEPES containing 10% FBS) on ice for 30 minutes. The samples were washed three times with DPBS containing 1% FBS and incubated with 2 μg/ml of streptavidin-phycoerythrin on ice for 30 minutes and then washed with DPBS. Samples were analyzed on a BD Fortessa LSR Cell Analyzer and further data analysis and gating were performed using FlowJo software (Treestar, Inc.).

HMVECs = assay: flow cytometry ligand-cell binding, HMVECs; set-up: species or system human; settings: biotinylated ligand 1 μM, streptavidin-phycoerythrin
Method: as §2, §3

platelets [1] = assay: platelets attachment assay on ligand treated culture surfaces; assay type: cell-based; settings: 16 hours
From the text: (§4) Ligands LXW7, LXY30, and LLP2A were synthesized as in U.S. Pat. No. 9,073,974. Biotinylated LXW7 (LXW7-bio) and biotinylated GRGD (GRGD-bio) (SEQ ID NO: 1) were synthesized using established solid phase peptide synthesis protocols (Xiao et al. (2010) Mol Cancer Therapeutics 9:2714). Peptide-bio was designed to have biotin attached to the side chain of Lys, with two hydrophilic linkers between peptide and Lys (biotin). To modify culture surface with ligands, target culture wells in a 24-well plate were coated with 500 μL of 20 μg/mL Avidin (Thermo Fisher Scientific), and incubated for 1 hour at 37° C. Avidin coated wells were rinsed three times with DPBS and were treated with 500 μL molar equivalents (2 μM) of D-biotin (Thermo Fisher Scientific), LXW7-bio, or GRGD-bio (SEQ ID NO: 1). After 1 hour, the wells were washed three times with DPBS and blocked with 1% bovine serum albumin (BSA; Thermo Fisher Scientific) for 1 hour. After the wells were rinsed three times with DPBS, for cell attachment assay, 5×10^4 HCAECs and THP-1 monocytes suspended in the respective maintenance medium were added to the wells and incubated for 10 minutes or 16 hours at 37° C., 5% CO2, respectively. […] Five images were randomly taken from each sample and quantification of images was performed using the Image J software (NIH).

ERK1/2 = assay: Western-blot analysis, phosphorylation of ERK1/2; assay type: cell-based, human; settings: LXW7 treated surface, 96 hours, vs D-biotin
Method: as §1

EGFR = assay: mRNA level of EGFR on EPCs; assay type: cell-based; settings: EPCs treated with LXW7
Method: FIG. 15 presents graphs of mRNA levels of VEGFR-2 (A) and EGFR (B) on EPCs after treating with different concentrations of LXW7 for 48 h. *P<0.05 vs. Control, #P<0.05 vs. 25 nM (n=10 per group).

platelets [2] = assay: flow cytometry ligand-cell binding, platelets; settings: biotinylated ligand 1 μM
Method: as §2, §3

THP-1 monocytes [3] = assay: attachment assay on ligand treated culture surfaces, THP-1 monocytes; assay type: cell-based; settings: 16 hours
From the text: as §4

THP-1 monocytes [4] = assay: flow cytometry ligand-cell binding, THP-1 monocytes; settings: biotinylated ligand 1 μM
Method: as §2, §3

HCAECs = assay: attachment assay on ligand treated culture surfaces, HCAECs; assay type: cell-based, human; settings: 10 minutes
From the text: as §4, with “respectively. After each time point the wells were washed three times with DPBS, and the adhered cells were fixed in 10% formalin (Azer Scientific) for 20 minutes. For platelets attachment assay, the PRP was centrifuged, and the platelet pellet was resuspended in 1% BSA with 2 mM CaCl2 and 1 mM MgCl2 to achieve a final concentration of 1×10^8 platelets/mL, added to the wells at a density of 5×10^7 platelets/cm^2, and incubated for 16 hours at 37° C., 5% CO2. The wells were washed three times with DPBS, and the adhered cells were fixed in 10% formalin for 20 min. The HCAECs wells were washed with DPBS again and blocked for 1 hour with 1% BSA. An additional wash was performed, and the plate was incubated overnight with mouse anti-PECAM-1 antibody (1:100; Abcam) in 1% BSA at 4° C.” for “respectively.”

## cGRGDdvc [LXW7]
VEGFR2 (Tyr1175)
  phosphorylation of VEGFR2 (Tyr1175) in ECs: significantly increased
HECFCs
  binding affinity to HECFCs by flow cytometry: higher binding affinity with different types of EPCs/ECs than conventional GRGD peptide
HMVECs
  binding affinity to HMVECs by flow cytometry: higher binding affinity with different types of EPCs/ECs than conventional GRGD peptide
Platelets [1]
  platelet adhesion on ligand treated surface: limited platelet adhesion
ERK1/2
  phosphorylation of ERK1/2 in ECs: significantly increased
EGFR
  EGFR mRNA level: increases in VEGFR2 and EGFR mRNA levels were found to be dependent on treatment time
Platelets [2]
  binding affinity with platelets by flow cytometry: very low binding affinity with platelets
THP-1 monocytes [3]
  THP-1 monocyte attachment on ligand treated surface: did not support THP-1 monocyte attachment
THP-1 monocytes [4]
  binding to THP-1 monocytes by flow cytometry: did not bind to THP-1 monocytes
HCAECs; avidin + biotinylated ligand 2 μM
  attachment of HCAECs on ligand treated surface: bound to both LXW7 and GRGD
HCAECs; quantified
  number of attached HCAECs, LXW7 vs GRGD surface: attracted more HCAECs than the GRGD-modified
